Reference: US9409866B2, “Pyridine-2-amides useful as CB2 agonists” (Hoffmann-La Roche Inc., priority 2012, dated 2016)
Read-outs that look alike come from different tables or passages of the source.

Columns and labels:
human CB2 receptors = human CB2 receptors (Homo sapiens (Human), UniProt P34972); assay: functional cAMP assay, CHO cells expressing human CB2; format: cell-based
Outline: (§1)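 CHO cells expressing human CB1 or CB2 were preincubated 30 min at 30 °C in Krebs Ringer bicarbonate with 1 mM IBMX, then exposed to compound 30 min at 30 °C. cAMP quantified by TR-FRET competition (Alexa700 antibody/ruthenium-cAMP) against a 10 μM–0.13 nM standard curve; EC50 derived.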

human CB1 receptors = human CB1 receptors (Homo sapiens (Human), UniProt P21554); assay: functional cAMP assay, CHO cells expressing human CB1; format: cell-based; settings: functional cAMP assay, CHO cells expressing human CB1
Chain of human CB1 receptors (P21554 whole entry): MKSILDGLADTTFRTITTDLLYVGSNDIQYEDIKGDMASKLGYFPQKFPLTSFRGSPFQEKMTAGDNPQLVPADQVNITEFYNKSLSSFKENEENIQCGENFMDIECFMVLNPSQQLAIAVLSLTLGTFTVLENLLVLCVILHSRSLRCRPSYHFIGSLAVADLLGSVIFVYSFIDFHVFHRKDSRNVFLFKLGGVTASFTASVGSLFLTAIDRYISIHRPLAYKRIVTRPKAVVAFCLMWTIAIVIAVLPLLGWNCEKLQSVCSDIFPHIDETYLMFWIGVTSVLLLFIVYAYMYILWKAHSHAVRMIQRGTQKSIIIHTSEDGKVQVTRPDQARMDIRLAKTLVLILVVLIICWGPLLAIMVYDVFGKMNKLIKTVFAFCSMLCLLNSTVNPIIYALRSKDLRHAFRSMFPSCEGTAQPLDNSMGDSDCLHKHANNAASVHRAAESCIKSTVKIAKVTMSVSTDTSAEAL
Outline: as §1

Chain of human CB2 receptors (P34972 whole entry): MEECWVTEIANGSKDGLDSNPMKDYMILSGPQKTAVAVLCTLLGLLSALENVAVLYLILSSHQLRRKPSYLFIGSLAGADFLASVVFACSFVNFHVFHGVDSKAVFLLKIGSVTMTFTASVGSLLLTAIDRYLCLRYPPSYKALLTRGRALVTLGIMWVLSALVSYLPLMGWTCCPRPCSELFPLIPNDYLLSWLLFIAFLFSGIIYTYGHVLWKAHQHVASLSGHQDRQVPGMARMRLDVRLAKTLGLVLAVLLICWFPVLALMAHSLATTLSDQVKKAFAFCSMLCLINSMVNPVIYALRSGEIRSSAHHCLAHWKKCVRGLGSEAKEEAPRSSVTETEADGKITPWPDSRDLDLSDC

SMILES	EC50 (human CB2 receptors; Human CB2 EC50 (uM))	EC50 (human CB1 receptors; Human CB1 EC50 (uM))	EC50 (human CB2 receptors; read-out: Human CB2 EC50)	EC50 (human CB1 receptors; read-out: Human CB1 EC50)
Cc1nc([C@](C)(CC2CC2)NC(=O)c2cc(OCC(F)(F)F)c(C3CC3)cn2)no1 (single isomer, unassigned; enantiomer b) [Example 67, 5-Cyclopropyl-4-(2,2,2-trifluoro-ethoxy)-pyridine-2-carboxylic acid [2-cyclopropyl-1-methyl-1-(5-methyl-[1,2,4]oxadiazol-3-yl)-ethyl]-amide (enantiomer B)]	0.0037 µM	5.28 µM		
Cc1nc([C@@](C)(NC(=O)c2cc(OCC(F)(F)F)c(Cl)cn2)C2CC2)no1 (single isomer, unassigned; enantiomer b) [Example 75, 5-Chloro-4-(2,2,2-trifluoro-ethoxy)-pyridine-2-carboxylic acid [1-cyclopropyl-1-(5-methyl-[1,2,4]oxadiazol-3-yl)-ethyl]-amide (enantiomer B)]	0.11 µM	> 10 µM		
Cc1nc(C(C)(NC(=O)c2cc(O[C@@H](C)C(F)(F)F)c(C3CC3)cn2)C2CC2)no1 (single isomer, unassigned; epimer a) [Example 68]			0.00395 µM	> 10 µM
Cc1nc(C(C)(NC(=O)c2cc(O[C@H](C)C(F)(F)F)c(C3CC3)cn2)C2CC2)no1 (single isomer, unassigned; epimer a) [Example 72]			0.0027 µM	0.19 µM
Cc1nc(C(C)(NC(=O)c2cc(O[C@@H](C)C(F)(F)F)c(C3CC3)cn2)C2CC2)no1 (single isomer, unassigned; epimer b) [Example 69]			0.00025 µM	0.015 µM
Cc1nc(C(C)(NC(=O)c2cc(O[C@H](C)C(F)(F)F)c(C3CC3)cn2)C2CC2)no1 (single isomer, unassigned; epimer b) [Example 73]			0.00025 µM	0.017 µM
COC(=O)C(C)(C)NC(=O)c1cc(I)c(Cl)cn1 [Example 1, 2-[(5-Chloro-4-iodo-pyridine-2-carbonyl)-amino]-2-methyl-propionic acid methyl ester]			0.0356 µM	> 10 µM
CC(C)(CO)NC(=O)c1cc(-c2cccc(Cl)c2)c(Cl)cn1 [Example 2, 5-Chloro-4-(3-chlorophenyl)-pyridine-2-carboxylic acid (2-hydroxy-1,1-dimethyl-ethyl)-amide]			0.0963 µM	> 10 µM
CC(C)C[C@H](NC(=O)c1cc(-c2cccc(Cl)c2)c(Cl)cn1)C(N)=O [Example 3, 5-Chloro-4-(3-chloro-phenyl)-pyridine-2-carboxylic acid ((S)-1-carbamoyl-3-methyl-butyl)-amide]			0.466 µM	> 10 µM
NC(=O)[C@H](CC1CC1)NC(=O)c1cc(OCC2CC2)c(Cl)cn1 [Example 4, 5-Chloro-4-cyclopropylmethoxy-pyridine-2-carboxylic acid ((S)-1-carbamoyl-2-cyclopropyl-ethyl)-amide]			0.115 µM	> 10 µM
O=C(NCC1(O)CCCCC1)c1cc(OCC2CC2)c(Cl)cn1 [Example 5, 5-Chloro-4-cyclopropylmethoxy-pyridine-2-carboxylic acid (1-hydroxy-cyclohexylmethyl)-amide]			0.107 µM	> 10 µM
O=C(NC1(CO)CCCC1)c1cc(OCC2CC2)c(Cl)cn1 [Example 6, 5-Chloro-4-cyclopropylmethoxy-pyridine-2-carboxylic acid (1-hydroxymethyl-cyclopentyl)-amide]			0.0524 µM	> 10 µM
CC(C)C[C@@H](CO)NC(=O)c1cc(OCC2CC2)c(Cl)cn1 [Example 7, 5-Chloro-4-cyclopropylmethoxy-pyridine-2-carboxylic acid ((S)-1-hydroxymethyl-3-methyl-butyl)-amide]			0.0523 µM	> 10 µM
CC(C)(C#N)NC(=O)c1cc(OCC2CC2)c(Cl)cn1 [Example 8, 5-Chloro-4-cyclopropylmethoxy-pyridine-2-carboxylic acid (cyano-dimethyl-methyl)-amide]			0.159 µM	> 10 µM
CC(C)C[C@H](NC(=O)c1cc(OCC2CC2)c(Br)cn1)C(N)=O [Example 9, 5-Bromo-4-cyclopropylmethoxy-pyridine-2-carboxylic acid ((S)-1-carbamoyl-3-methyl-butyl)-amide]			0.0329 µM	> 10 µM
CC(C)[C@@](C)(CO)NC(=O)c1cc(OCC2CC2)c(Cl)cn1 [Example 10, 5-Chloro-4-cyclopropylmethoxy-pyridine-2-carboxylic acid ((S)-1-hydroxymethyl-1,2-dimethyl-propyl)-amide]			0.0119 µM	> 10 µM
CC(C)[C@H](CO)NC(=O)c1cc(OCC2CC2)c(Cl)cn1 [Example 11, 5-Chloro-4-cyclopropylmethoxy-pyridine-2-carboxylic acid ((R)-1-hydroxymethyl-2-methyl-propyl)-amide]			0.0554 µM	> 10 µM

SMILES	EC50 (human CB2 receptors; Human CB2 EC50 (uM))	EC50 (human CB1 receptors; Human CB1 EC50 (uM))	EC50 (human CB2 receptors; read-out: Human CB2 EC50)	EC50 (human CB1 receptors; read-out: Human CB1 EC50)
CC(C)[C@](C)(CO)NC(=O)c1cc(OCC2CCC2)c(Cl)cn1 [Example 12, 5-Chloro-4-cyclobutylmethoxy-pyridine-2-carboxylic acid ((R)-1-hydroxymethyl-1,2-dimethyl-propyl)-amide]			0.0092 µM	> 10 µM
CCC[C@H](CO)NC(=O)c1cc(OCC2CC2)c(Cl)cn1 [Example 13, 5-Chloro-4-cyclopropylmethoxy-pyridine-2-carboxylic acid ((R)-1-hydroxymethyl-butyl)-amide]			0.146 µM	> 10 µM
CC(C)[C@](C)(CO)NC(=O)c1cc(OCC2CC2)c(Cl)cn1 [Example 14, 5-Chloro-4-cyclopropylmethoxy-pyridine-2-carboxylic acid ((R)-1-hydroxymethyl-1,2-dimethyl-propyl)-amide]			0.0128 µM	6.98 µM
CC(C)[C@](C)(CO)NC(=O)c1cc(Cc2ccc(F)cc2)c(Cl)cn1 [Example 15, 5-Chloro-4-(4-fluoro-benzyl)-pyridine-2-carboxylic acid ((R)-1-hydroxymethyl-1,2-dimethyl-propyl)-amide]			0.0058 µM	> 10 µM
O=C(N[C@H](c1ccccn1)C(F)(F)F)c1cc(OCC2CC2)c(Cl)cn1 [Example 16, (+)-5-Chloro-4-cyclopropylmethoxy-pyridine-2-carboxylic acid (2,2,2-trifluoro-1-pyridin-2-yl-ethyl)-amide]			0.0031 µM	0.815 µM
CC(C)(CO)CNC(=O)c1cc(OCC2CC2)c(Cl)cn1 [Example 17, 5-Chloro-4-cyclopropylmethoxy-pyridine-2-carboxylic acid (3-hydroxy-2,2-dimethyl-propyl)-amide]			0.0473 µM	> 10 µM
CC(C)C(CCO)NC(=O)c1cc(OCC2CC2)c(Cl)cn1 (centres unmarked) [Example 18, 5-Chloro-4-cyclopropylmethoxy-pyridine-2-carboxylic acid [1-(2-hydroxy-ethyl)-2-methyl-propyl]-amide]			0.149 µM	> 10 µM
O=C(NC(CCO)C1CC1)c1cc(OCC2CC2)c(Cl)cn1 (centres unmarked) [Example 19, 5-Chloro-4-cyclopropylmethoxy-pyridine-2-carboxylic acid (1-cyclopropyl-3-hydroxy-propyl)-amide]			0.0615 µM	> 10 µM
O=C(NCC1(CO)CCCC1)c1cc(OCC2CC2)c(Cl)cn1 [Example 20, 5-Chloro-4-cyclopropylmethoxy-pyridine-2-carboxylic acid (1-hydroxymethyl-cyclopentylmethyl)-amide]			0.0232 µM	> 10 µM
CCC(CC)(CO)NC(=O)c1cc(OCC2CC2)c(Cl)cn1 [Example 21, 5-Chloro-4-cyclopropylmethoxy-pyridine-2-carboxylic acid (1-ethyl-1-hydroxymethyl-propyl)-amide]			0.0404 µM	> 10 µM
O=C(N[C@@H](c1cccnc1)C(F)(F)F)c1cc(OCC2CC2)c(Cl)cn1 [Example 22, 5-Chloro-4-cyclopropylmethoxy-pyridine-2-carboxylic acid ((S)-2,2,2-trifluoro-1-pyridin-3-yl-ethyl)-amide]			0.0057 µM	> 10 µM
CNC(=O)[C@@H](NC(=O)c1cc(OC2COC2)c(Cl)cn1)C(C)(C)C [Example 23, 5-Chloro-4-(oxetan-3-yloxy)-pyridine-2-carboxylic acid ((S)-2,2-dimethyl-1-methylcarbamoyl-propyl)-amide]			0.205 µM	> 10 µM
CNC(=O)[C@@H](NC(=O)c1cc(OCC(F)(F)F)c(Cl)cn1)C(C)(C)C [Example 24, 5-Chloro-4-(2,2,2-trifluoro-ethoxy)-pyridine-2-carboxylic acid ((S)-2,2-dimethyl-1-methylcarbamoyl-propyl)-amide]			0.0098 µM	> 10 µM
CC(C)CC(C)(CO)NC(=O)c1cc(OCC2CC2)c(Cl)cn1 (centres unmarked) [Example 25, 5-Chloro-4-cyclopropylmethoxy-pyridine-2-carboxylic acid (1-hydroxymethyl-1,3-dimethyl-butyl)-amide]			0.0119 µM	> 10 µM
CCC(C)(CO)NC(=O)c1cc(OCC2CC2)c(Cl)cn1 (centres unmarked) [Example 26, 5-Chloro-4-cyclopropylmethoxy-pyridine-2-carboxylic acid (1-hydroxymethyl-1-methyl-propyl)-amide]			0.0476 µM	> 10 µM
CC(C)C[C@@](C)(CO)NC(=O)c1cc(OCC2CC2)c(Cl)cn1 [Example 27, (−)-5-Chloro-4-cyclopropylmethoxy-pyridine-2-carboxylic acid (1-hydroxymethyl-1,3-dimethyl-butyl)-amide]			0.0224 µM	> 10 µM
CC(C)C[C@](C)(CO)NC(=O)c1cc(OCC2CC2)c(Cl)cn1 [Example 28, (+)-5-Chloro-4-cyclopropylmethoxy-pyridine-2-carboxylic acid (1-hydroxymethyl-1,3-dimethyl-butyl)-amide]			0.0263 µM	> 10 µM
